Data on one molecule can be found in patent publication US20080113924A1, “Neuramindase Inhibitor” (priority 2004, published 2008).

The target in the test is T1, Neuraminidase (Derived from Vibrio cholerae) (Vibrio cholerae serotype O1, UniProt P0C6E9).
T1 construct: host or cells: Vibrio cholerae (printed as 'Vibro-Choralie')
Briefly: Inhibition activity against neuraminidase (pre-incubation, p-nitrophenyl-α-N-acetyl neuraminic acid hydrolysis, absorbance 405 nm). In kind it is biochemical. The settings on record: irreversible inhibitor; pre-incubation 0, 10 or 30 min with 0-0.5 mM, pH 5.0; calculated from inhibition curve (FIG. 3); read-out: inhibition constant (Ki). The protocol: Neuraminidase (50 μg) produced by Vibro-Choralie was pre-incubated in 50 mM phosphoric acid-tartaric acid buffer (pH 5.0, 10 μ1) together with the compound 6 (0, 0.05, 0.1, 0.2, and 0.5 mM), after 0, 10 or 30 minutes, 2 μl of the reaction solution was fractionated, respectively. The fractionated and pre-incubated solution was immediately incubated for 5 minutes in 50 mM phosphoric acid-tartaric acid buffer (pH 5.0, 50 μl) using 5 mM p-nitrophenyl-α-N-acetyl neuraminic acid. Then, glycine buffer (pH 11.0, […]) was added to each fractionated solution to stop the reaction. The amount of p-nitrophenol produced by hydrolysis reaction of neuraminidase was calculated by absorbance determination at 405 nm.

T1 sequence (P0C6E9 25-781): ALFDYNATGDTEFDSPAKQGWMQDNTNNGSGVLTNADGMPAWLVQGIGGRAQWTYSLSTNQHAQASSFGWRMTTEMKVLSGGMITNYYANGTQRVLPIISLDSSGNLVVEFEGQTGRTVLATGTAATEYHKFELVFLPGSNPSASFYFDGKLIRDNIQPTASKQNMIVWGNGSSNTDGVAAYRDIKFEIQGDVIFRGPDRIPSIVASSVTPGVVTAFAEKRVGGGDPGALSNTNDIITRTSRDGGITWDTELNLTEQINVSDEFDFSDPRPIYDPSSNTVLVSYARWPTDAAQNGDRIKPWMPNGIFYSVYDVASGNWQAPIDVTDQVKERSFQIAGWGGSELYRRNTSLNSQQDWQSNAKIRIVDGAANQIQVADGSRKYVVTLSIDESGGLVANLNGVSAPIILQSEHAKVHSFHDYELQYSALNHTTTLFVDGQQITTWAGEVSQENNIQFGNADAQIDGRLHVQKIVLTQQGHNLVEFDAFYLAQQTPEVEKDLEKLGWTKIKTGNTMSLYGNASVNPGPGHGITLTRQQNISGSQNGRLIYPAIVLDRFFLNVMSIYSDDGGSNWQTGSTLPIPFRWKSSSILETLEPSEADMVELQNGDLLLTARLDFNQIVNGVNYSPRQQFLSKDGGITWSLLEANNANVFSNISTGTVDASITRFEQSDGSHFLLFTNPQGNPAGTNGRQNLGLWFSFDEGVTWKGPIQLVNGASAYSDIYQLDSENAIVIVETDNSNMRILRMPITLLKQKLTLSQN

With `CC(=O)NC1C(O)CC(Oc2ccc(NS(=O)(=O)c3cccc4c(N(C)C)cccc34)cc2C(F)F)(C(=O)O)OC1C(O)C(O)CO` (stereo not shown) [compound 6], the Ki was 1900 µM.
